Converted amounts (≈) assume the structure as drawn.
How the values were obtained:
[1] = test system: Enterococcus faecalis; experiment: Compound was evaluated for inhibition of peptidoglycan synthesis in Enterococcus faecalis using [14C]lysine radioligand; not applicable; format: functional, organism-based
[2] = test system: Escherichia coli; experiment: Compound was evaluated for its antibacterial activity against Escherichia coli BAS849; format: functional
[3] = test system: Enterococcus faecium; experiment: Compound was evaluated for its antibacterial activity against Enterococcus faecium CL4931 (Van A); format: functional
[4] = test system: Staphylococcus epidermidis; experiment: Compound was evaluated for its antibacterial activity against Staphylococcus epidermidis ATCC 12228; format: functional
[5] = test system: Escherichia coli; experiment: Compound was evaluated for inhibition of peptidoglycan synthesis in Escherichia coli using UDP-[14C]-GlcNAc radioligand; format: functional, organism-based
[6] = test system: Enterococcus faecalis; experiment: Compound was evaluated for its antibacterial activity against Enterococcus faecalis CL4877 (Van B); format: functional
[7] = test system: Enterococcus faecalis; experiment: Compound was evaluated for its antibacterial activity against Enterococcus faecalis ATCC 29212; format: functional
[8] = test system: Enterococcus faecium; experiment: Compound was evaluated for its antibacterial activity against Enterococcus faecium ATCC 49624; format: functional
[9] = test system: Enterococcus faecalis; experiment: Compound was evaluated for its antibacterial activity against Enterococcus faecalis CL5244 (Van B); format: functional
[10] = test system: Escherichia coli; experiment: Compound was evaluated for inhibition of peptidoglycan synthesis in Escherichia coli using [14C]-lipid II radioligand; format: functional, organism-based
[11] = test system: Staphylococcus aureus; experiment: Compound was evaluated for its antibacterial activity against Staphylococcus aureus ATCC 29213; format: functional
[12] = test system: Enterococcus faecalis; experiment: Compound was evaluated for bactericidal activity against Enterococcus faecalis; format: functional; parameters: concentration or dose not given beside the values
[13] = test system: Enterococcus faecalis; experiment: Compound was evaluated for inhibition of peptidoglycan synthesis in Enterococcus faecalis using [14C]lysine radioligand; format: functional, organism-based
[14] = test system: Staphylococcus epidermidis; experiment: Compound was evaluated for bactericidal activity against Staphylococcus epidermidis; format: functional
[15] = test system: Staphylococcus aureus; experiment: Compound was evaluated for bactericidal activity against Staphylococcus aureus; format: functional
[16] = test system: Enterococcus faecium; experiment: Compound was evaluated for its antibacterial activity against Enterococcus faecium RLA1 strain resistant to ampicillin; format: functional
[17] = test system: Staphylococcus epidermidis; experiment: Compound was evaluated for its antibacterial activity against […] ATCC 12228; format: functional
[18] = test system: Staphylococcus epidermidis; experiment: Compound was evaluated for bactericidal activity against […]; format: functional

Structure (SMILES)	IC50 [1]	MIC [2] [µg/mL]	MIC [3] [µg/mL]	MIC [4] [µg/mL]	IC50 [5] [nM]	MIC [6] [µg/mL]	MIC [7] [µg/mL]	MIC [8] [µg/mL]	MIC [9] [µg/mL]	IC50 [10] [nM]	MIC [11] [µg/mL]	Survival [12] [%]	IC50 [13] [nM]	Survival [14] [%]	Survival [15] [%]	MIC [16] [µg/mL]	MIC [17] [µg/mL]	Survival [18] [%]
CC(=O)NC1C(OC2C(OP(=O)(O)OC[C@@H](OCCC(C)CCCCC(C)(C)CCC(C)CCC(C)CCCC(C)C)C(=O)O)OC(C(N)=O)C(C)(O)C2OC(N)=O)OC(CO)C(O)C1O (stereo partly specified)	Not Active	> 100	> 100	> 100	33	> 100	> 100	> 100	> 100	241	> 100	–	–	–	–	–	–	–
C=C(C/C=C(\C)CCC=C(C)C)CCC(C)(C)/C=C/CC/C(C)=C\CO[C@H](COP(=O)(O)O[C@H]1O[C@@H](C(N)=O)[C@@](C)(O)[C@H](OC(N)=O)[C@@H]1O[C@@H]1O[C@@H](CO[C@@H]2O[C@@H](CO)[C@@H](O)[C@H](O)[C@@H]2O)[C@@H](O[C@@H]2O[C@@H](C)[C@@H](O[C@@H]3O[C@@H](C(=O)NC4=C(O)CCC4=O)[C@H](O)[C@H](O)[C@@H]3O)[C@H](O)[C@@H]2NC(C)=O)[C@@H](O)[C@@H]1NC(C)=O)C(=O)O [MOENOMYCIN]	–	0.025 (≈ 0.0158 µM)	0.25 (≈ 0.158 µM)	–	15.6	0.13 (≈ 0.0821 µM)	0.078 (≈ 0.0493 µM)	> 200	0.06 (≈ 0.0379 µM)	31	0.05 (≈ 0.0316 µM)	143	> 700000	0.48	125	0.78 (≈ 0.493 µM)	0.025 (≈ 0.0158 µM)	–
CC(=O)N[C@@H]1[C@H](O[C@H]2[C@@H](O)[C@H](NC(C)=O)[C@H](OC3[C@@H](OP(=O)(O)OC[C@@H](OCCC(C)CCCCC(C)(C)CCC(C)CCC(C)CCCC(C)C)C(=O)O)O[C@@H](C(N)=O)[C@@](C)(O)[C@@H]3OC(N)=O)O[C@H]2CO[C@@H]2O[C@@H](CO)[C@@H](O)[C@H](O)[C@@H]2O)O[C@@H](C)[C@@H](O[C@@H]2O[C@@H](C(=O)NC3=C(O)CCC3=O)[C@H](O)[C@H](O)[C@@H]2O)[C@@H]1O (stereo partly specified)	–	0.31 (≈ 0.195 µM)	0.78 (≈ 0.49 µM)	0.31 (≈ 0.195 µM)	8.1	0.25 (≈ 0.157 µM)	0.08 (≈ 0.0502 µM)	> 25	0.25 (≈ 0.157 µM)	98	0.16 (≈ 0.1 µM)	141	> 700000	0.33	62	0.25 (≈ 0.157 µM)	–	–
CCCCCCCCCCCCO[C@H](COP(=O)(O)OC1OC(C(N)=O)C(O)C(NC(=O)Nc2ccc(Cl)c(C(F)(F)F)c2)C1OC1OC(CO)C(O)C(O)C1NC(=O)c1cccc(C(F)(F)F)c1)C(=O)O (stereo partly specified)	–	12.5 (≈ 11.5 µM)	6.25 (≈ 5.77 µM)	–	9800	3.13 (≈ 2.89 µM)	6.25 (≈ 5.77 µM)	6.25 (≈ 5.77 µM)	3.13 (≈ 2.89 µM)	100000	6.25 (≈ 5.77 µM)	0.00024	2500	–	<5e-05	6.25 (≈ 5.77 µM)	6.25 (≈ 5.77 µM)	<5e-05
CN[C@H](CC(C)C)C(=O)N[C@H]1C(=O)N[C@@H](CC(N)=O)C(=O)N[C@H]2C(=O)N[C@H]3C(=O)N[C@H](C(=O)N[C@H](C(=O)O)c4cc(O)cc(O)c4-c4cc3ccc4O)[C@H](O)c3ccc(c(Cl)c3)Oc3cc2cc(c3O[C@@H]2O[C@H](CO)[C@@H](O)[C@H](O)[C@H]2O[C@H]2C[C@](C)(N)[C@H](O)[C@H](C)O2)Oc2ccc(cc2Cl)[C@H]1O [VANCOMYCIN]	–	0.78 (≈ 0.538 µM)	> 1250	–	3700	1250 (≈ 863 µM)	3.12 (≈ 2.15 µM)	0.39 (≈ 0.269 µM)	25 (≈ 17.3 µM)	4500	–	–	2600	–	–	0.78 (≈ 0.538 µM)	–	–
CC(=O)N[C@@H]1[C@H](O[C@H]2[C@@H](O)[C@H](NC(C)=O)[C@H](O[C@@H]3[C@@H](OP(=O)(O)OC[C@@H](OCCC(C)CCCCC(C)(C)CCC(C)CCC(C)CCCC(C)C)C(=O)O)O[C@@H](C(N)=O)[C@@](C)(O)[C@@H]3OC(N)=O)O[C@H]2CO[C@@H]2O[C@@H](CO)[C@@H](O)[C@H](O)[C@@H]2O)O[C@@H](C)[C@@H](O[C@@H]2O[C@@H](C(N)=O)[C@H](O)[C@H](O)[C@@H]2O)[C@@H]1O (stereo partly specified)	–	0.08 (≈ 0.0535 µM)	0.39 (≈ 0.261 µM)	–	8.6	0.25 (≈ 0.167 µM)	0.16 (≈ 0.107 µM)	> 25	0.25 (≈ 0.167 µM)	87	0.08 (≈ 0.0535 µM)	176	> 700000	0.4	61	0.25 (≈ 0.167 µM)	0.16 (≈ 0.107 µM)	–
CC(=O)NC1C(OC2C(CO)OC(OC3C(OP(=O)(O)OC[C@@H](OCCC(C)CCCCC(C)(C)CCC(C)CCC(C)CCCC(C)C)C(=O)O)OC(C(N)=O)C(C)(O)C3OC(N)=O)C(NC(C)=O)C2O)OC(C)C(O)C1O (stereo partly specified)	–	0.31 (≈ 0.267 µM)	1.56 (≈ 1.35 µM)	–	16	1.56 (≈ 1.35 µM)	0.78 (≈ 0.673 µM)	25 (≈ 21.6 µM)	1.56 (≈ 1.35 µM)	131	0.63 (≈ 0.543 µM)	147	50400	0.022	0.035	1.56 (≈ 1.35 µM)	0.53 (≈ 0.457 µM)	–

Source: ChEMBL document CHEMBL1132768, “Differential antibacterial activity of moenomycin analogues on gram-positive bacteria” (Bioorg Med Chem Lett, 2000)
